Values of other authors in patent publication US20180009934A1, “HIGH […] […] RESINS” (priority 2016, published 2018).

Conditions: monomer property, Table 1; species and route not given

SMILES | Toxicity LD50 [mg/kg]
C=Cc1ccccc1 [STYRENE, styrene] | >2000
C=Cc1ccc(C(C)(C)C)cc1 [Monomer 1, 4-tert butyl styrene] | >2000
